Test results as given in patent US8624034B2, “Fluoro-pyridinone derivatives useful as antibacterial agents” (Pfizer Inc., priority 2011, dated 2014).
Values after ≈ are worked out from the molar mass of the structure shown. Where two headings read alike, the source gives them in different places.

Legend:
[1] = test system: Acinetobacter baumannii/haemolyticus, multidrug-resistant clinical isolate (AB-3167); test: MIC determination, AB-3167; assay type: cell-based
How it was run: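 MIC read visually after overnight growth across 2-fold concentration steps in the CLSI dilution method against the multidrug-resistant clinical isolate. Duplicate determinations, lower value reported when within 2-fold, otherwise repeated; every run checked with control organisms and reference drugs.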

[2] = test system: Escherichia coli EC-1: VOGEL, mouse virulent; test: MIC determination, EC-1; assay type: cell-based; details: Escherichia coli
How it was run: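 Duplicate runs differing by more than 2-fold were repeated, and otherwise the lower MIC was kept. The test organism was E. coli EC-1 (VOGEL, mouse virulent), incubated overnight across 2-fold compound dilutions following CLSI guidelines. The MIC was read visually as the lowest concentration inhibiting growth relative to drug-free control.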

[3] = biological target: T1, Pseudomonas aeruginosa LpxC enzyme (Pseudomonas aeruginosa, UniProt P47205); test: IC50 assay, LpxC enzyme from P. aeruginosa (PA LpxC enzyme IC50); assay type: biochemical; details: LpxC enzyme 0.1 nM, 25° C., 1 hour, read-out: PA:IC50
T1 construct: made in house; host or cells: E. coli
T1 sequence (P47205 1-303): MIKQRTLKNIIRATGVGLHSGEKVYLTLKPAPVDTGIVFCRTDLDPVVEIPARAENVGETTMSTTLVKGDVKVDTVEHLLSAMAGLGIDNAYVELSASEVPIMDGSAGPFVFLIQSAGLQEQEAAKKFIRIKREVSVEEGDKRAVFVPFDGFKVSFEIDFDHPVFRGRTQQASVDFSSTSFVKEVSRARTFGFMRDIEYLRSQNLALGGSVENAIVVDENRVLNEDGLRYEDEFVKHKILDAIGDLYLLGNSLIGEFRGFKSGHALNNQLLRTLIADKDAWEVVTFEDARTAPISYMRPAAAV
How it was run: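 IC50 values came from percent conversion, referenced to a no-enzyme control. Conversion was read by RapidFire HTMS mass spectrometry after HCl quench of the 1 h enzyme reaction.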

[4] = test system: Pseudomonas aeruginosa UI-18: wild-type (PA-7); test: MIC determination, PA-7; assay type: cell-based; details: Table 2, lower of duplicate values
Protocol: The in vitro antibacterial activity of compounds described in the Examples was evaluated by minimum inhibitory concentration (MIC) testing according to Clinical and Laboratory Standards Institute (CLSI). See: Clinical and Laboratory Standards Institute. Methods for Dilution Antimicrobial Susceptibility Tests for Bacteria that Grow Aerobically; Approved Standard-Eighth Edition. CLSI document M7-A8 [ISBN 1-56238-689-1]. Clinical and Laboratory Standards Institute, 940 West Valley Road, Suite 1400, Wayne, Pa. 19087-1898 USA, 2006; also Clinical and Laboratory Standards Institute. Performance Standards for Antimicrobial Susceptibility Testing; Twentieth Informational Supplement. CLSI document M100-S20 [ISBN 1-56238-716-2]. Clinical and Laboratory Standards Institute.
The MIC determination is a standard laboratory method for evaluating the antibacterial activity of a compound. The MIC represents the lowest drug concentration that inhibits visible growth of bacteria following overnight incubation. […] Typically, the drug concentration range is broken down into 2-fold increments (e.g. 0.06 μg/mL, 0.12 μg/mL. 0.25 μg/mL, 0.50 μg/mL, 1.0 μg/mL, etc.) and the various drug concentrations are all individually incubated overnight with approximately the same number of bacteria. The MIC is then determined by visually inspecting the drug effect at each concentration, and identifying the lowest drug concentration that has inhibited bacterial growth as compared to the drug free control. Typically, bacteria continue to grow at drug concentrations lower than the MIC and don't grow at concentrations at and above the MIC.
The MIC values described in Table 2 and 3 below were derived from assays wherein each test compound was evaluated in duplicate. In cases where the duplicate values varied by 0-2-fold, the lower of the two values was reported below. Generally speaking, if the duplicate values varied by more than 2-fold, the assay was considered non-valid and was repeated until the variation between duplicate runs was ≦2-fold. In line with the CLSI guidelines referred to above, both control organisms and reference compounds were utilized in each MIC assay to provide proper quality control. MIC values generated with these control organisms and reference compounds were required to fall within a defined range for the assay to be considered valid and be included herein. Those skilled in the art will recognize that MIC values can and do vary from experiment to experiment. Generally speaking, it should be recognized that MIC values often vary +/−2-fold from experiment to experiment. While a single MIC is reported for each compound and each microorganism, the reader should not conclude that each compound was only tested once. Several of the compounds were subjected to multiple tests. The data reported in Tables 2 and 3 is reflective of the compounds relative activity and different MICs may have been generated on these occasions in line with the guidelines described above.
The following bacterial strains were used in these MIC determinations:
1) Pseudomonas aeruginosa UI-18: Wild-type, labeled as PA-7 in Tables 2 and 3;

PA:UC12120 = test: MIC determination, PA:UC12120 (Table 3); assay type: cell-based, Pseudomonas aeruginosa; details: Pseudomonas aeruginosa, UC12120, Table 3, lower of duplicate values
How it was run: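 CLSI broth dilution MIC with 2-fold concentration steps, overnight incubation; MIC is the lowest concentration visibly inhibiting growth versus drug-free control. Run in duplicate, lower value reported when within 2-fold; control organisms and reference compounds required within defined ranges.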

[5] = Table 2, lower of duplicate values
[6] = read-out: EC-1 (MIC), Table 2, lower of duplicate values
[7] = Table 3, lower of duplicate values
[8] = read-out: EC-1 (MIC), Table 3, lower of duplicate values

Structure (SMILES) | MIC [1, 5] | MIC [2, 6] | IC50 ([3]; Table 2) | MIC [4] | MIC [1, 7] | MIC [2, 8] | IC50 ([3]; Table 3) | MIC (PA:UC12120)
C[C@@](CCn1cc(F)c(-c2ccccc2)c(F)c1=O)(C(=O)NO)S(C)(=O)=O [Example 38, (2R)-4-(3,5-Difluoro-2-oxo-4-phenylpyridin-1(2H)-yl)-N-hydroxy-2-methyl-2-(methylsulfonyl)butanamide] | > 64 µg/mL | 1 µg/mL (≈ 2.5 µM) | 0.55 nM | 0.5 µg/mL (≈ 1.25 µM) |  |  |  | 
COc1cnn(-c2ccc(-c3cc(=O)n(CC[C@](C)(C(=O)NO)S(C)(=O)=O)cc3F)cc2)n1 [Example 22, (2R)-4-{5-Fluoro-4-[4-(4-methoxy-2H-1,2,3-triazol-2-yl)phenyl]-2-oxopyridin-1(2H)-yl}-N-hydroxy-2-methyl-2-(methylsulfonyl)butanamide] | > 64 µg/mL | ≤ 0.06 µg/mL | 0.181 nM | 0.5 µg/mL (≈ 1.04 µM) |  |  |  | 
COc1cccc(-c2cc(=O)n(CC[C@](C)(C(=O)NO)S(C)(=O)=O)cc2F)c1 [Example 25, (2R)-4-[5-Fluoro-4-(3-methoxyphenyl)-2-oxopyridin-1(2H)-yl]-N-hydroxy-2-methyl-2-(methylsulfonyl)butanamide] | > 64 µg/mL | 1 µg/mL (≈ 2.42 µM) | 0.412 nM | 2 µg/mL (≈ 4.85 µM) |  |  |  | 
C[C@@](CCn1cc(F)c(-c2ccc(OC(F)F)c(F)c2)cc1=O)(C(=O)NO)S(C)(=O)=O [Example 35, (2R)-4-{4-[4-(difluoromethoxy)-3-fluorophenyl]-5-fluoro-2-oxopyridin-1(2H)-yl}-N-hydroxy-2-methyl-2-(methylsulfonyl)butanamide] | > 64 µg/mL | 1 µg/mL (≈ 2.14 µM) | 0.589 nM | 0.5 µg/mL (≈ 1.07 µM) |  |  |  | 
C[C@@](CCn1cc(F)c(C#Cc2ccccc2)cc1=O)(C(=O)NO)S(C)(=O)=O [Example 48, (2R)-4-[5-Fluoro-2-oxo-4-(phenylethynyl)pyridin-1(2H)-yl]-N-hydroxy-2-methyl-2-(methylsulfonyl)butanamide] | > 64 µg/mL | 0.06 µg/mL (≈ 0.148 µM) | 0.555 nM | 0.5 µg/mL (≈ 1.23 µM) |  |  |  | 
Cc1cc(-c2cc(=O)n(CC[C@](C)(C(=O)NO)S(C)(=O)=O)cc2F)ccc1-n1nccn1 [Example 37, (2R)-4-{5-Fluoro-4-[3-methyl-4-(2H-1,2,3-triazol-2-yl)phenyl]-2-oxopyridin-1(2H)-yl}-N-hydroxy-2-methyl-2-(methylsulfonyl)butanamide] | > 64 µg/mL | 0.5 µg/mL (≈ 1.08 µM) |  | 1 µg/mL (≈ 2.16 µM) |  |  |  | 
C[C@@](CCn1cc(F)c(-c2ccc3c(c2)OC(F)(F)O3)cc1=O)(C(=O)NO)S(C)(=O)=O [Example 47, (2R)-4-[4-(2,2-Difluoro-1,3-benzodioxol-5-yl)-5-fluoro-2-oxopyridin-1(2H)-yl]-N-hydroxy-2-methyl-2-(methylsulfonyl)butanamide] | > 64 µg/mL | 0.25 µg/mL (≈ 0.541 µM) |  | 0.5 µg/mL (≈ 1.08 µM) |  |  |  | 
CC(CCn1cc(F)c(-c2ccc(C#N)nc2)cc1=O)(C(=O)NO)S(C)(=O)=O (stereo not drawn) [Example 70, 4-(6-cyano-5′-fluoro-2′-oxo-3,4′-bipyridin-1′(2′H)-yl)-N-hydroxy-2-methyl-2-(methylsulfonyl)butanamide] |  |  |  |  | > 64 µg/mL | > 64 µg/mL | 33.3 nM | 64 µg/mL (≈ 157 µM)
CC(CCn1cc(F)c(-c2ccc(CC#N)cc2)cc1=O)(C(=O)NO)S(C)(=O)=O (stereo not drawn) [Example 91, 4-{4-[4-(cyanomethyl)phenyl]-5-fluoro-2-oxopyridin-1(2H)-yl}-N-hydroxy-2-methyl-2-(methylsulfonyl)butanamide] |  |  |  |  | > 64 µg/mL | 16 µg/mL (≈ 38 µM) | 2.3 nM | 4 µg/mL (≈ 9.49 µM)
CCOc1ccc(-c2cc(=O)n(CCC(C)(C(=O)NO)S(C)(=O)=O)cc2F)cc1F (stereo not drawn) [Example 95, 4-[4-(4-ethoxy-3-fluorophenyl)-5-fluoro-2-oxopyridin-1(2H)-yl]-N-hydroxy-2-methyl-2-(methylsulfonyl)butanamide] |  |  |  |  | 64 µg/mL (≈ 144 µM) | 1 µg/mL (≈ 2.25 µM) | 1.2 nM | 2 µg/mL (≈ 4.5 µM)
COc1cccc(-c2cc(=O)n(CCC(C)(C(=O)NO)S(C)(=O)=O)cc2F)c1F (stereo not drawn) [Example 118, 4-[5-fluoro-4-(2-fluoro-3-methoxyphenyl)-2-oxopyridin-1(2H)-yl]-N-hydroxy-2-methyl-2-(methylsulfonyl)butanamide] |  |  |  |  | > 64 µg/mL | 1 µg/mL (≈ 2.32 µM) | 0.7 nM | 1 µg/mL (≈ 2.32 µM)
CC(CCn1cc(F)c(-c2cccc(F)c2F)cc1=O)(C(=O)NO)S(C)(=O)=O (stereo not drawn) [Example 117, 4-[4-(2,3-difluorophenyl)-5-fluoro-2-oxopyridin-1(2H)-yl]-N-hydroxy-2-methyl-2-(methylsulfonyl)butanamide] |  |  |  |  | > 64 µg/mL | 2 µg/mL (≈ 4.78 µM) | 0.8 nM | 0.5 µg/mL (≈ 1.2 µM)
CCOc1ccc(-c2cc(=O)n(CCC(C)(C(=O)NO)S(C)(=O)=O)cc2F)cn1 (stereo not drawn) [Example 99, 4-(6-ethoxy-5′-fluoro-2′-oxo-3,4′-bipyridin-1′(2′H)-yl)-N-hydroxy-2-methyl-2-(methylsulfonyl)butanamide] |  |  |  |  | > 64 µg/mL | 2 µg/mL (≈ 4.68 µM) | 2.5 nM | 2 µg/mL (≈ 4.68 µM)
CN(C)C(=O)c1ccc(-c2cc(=O)n(CCC(C)(C(=O)NO)S(C)(=O)=O)cc2F)cc1 (stereo not drawn) [Example 68, 4-{5-fluoro-1-[4-(hydroxyamino)-3-methyl-3-(methylsulfonyl)-4-oxobutyl]-2-oxo-1,2-dihydropyridin-4-yl}-N,N-dimethylbenzamide] |  |  |  |  | > 64 µg/mL | > 64 µg/mL | 34.3 nM | > 64 µg/mL
CC(CCn1cc(F)c(-c2ccc(Cl)cc2)cc1=O)(C(=O)NO)S(C)(=O)=O (stereo not drawn) [Example 107, 4-[4-(4-chlorophenyl)-5-fluoro-2-oxopyridin-1(2H)-yl]-N-hydroxy-2-methyl-2-(methylsulfonyl)butanamide] |  |  |  |  | > 64 µg/mL | 1 µg/mL (≈ 2.4 µM) | 1 nM | 0.25 µg/mL (≈ 0.6 µM)
CC(CCn1cc(F)c(-c2cnc3ccccc3c2)cc1=O)(C(=O)NO)S(C)(=O)=O (stereo not drawn) [Example 87, 4-(5-fluoro-2-oxo-4-quinolin-3-ylpyridin-1(2H)-yl)-N-hydroxy-2-methyl-2-(methylsulfonyl)butanamide] |  |  |  |  | > 64 µg/mL | 16 µg/mL (≈ 36.9 µM) | 6.1 nM | 8 µg/mL (≈ 18.5 µM)
COc1cc(C)cc(-c2cc(=O)n(CCC(C)(C(=O)NO)S(C)(=O)=O)cc2F)c1F (stereo not drawn) [Example 111, 4-[5-fluoro-4-(2-fluoro-3-methoxy-5-methylphenyl)-2-oxopyridin-1(2H)-yl]-N-hydroxy-2-methyl-2-(methylsulfonyl)butanamide] |  |  |  |  | > 64 µg/mL | 4 µg/mL (≈ 9 µM) | 3 nM | 4 µg/mL (≈ 9 µM)
